# Laboratory results reported in ChEMBL document CHEMBL5360646, “Optimization of M3 Antagonist-PDE4 Inhibitor (MAPI) Dual Pharmacology Molecules for the Treatment of COPD” (J Med Chem, 2023).
# Assays:
# [1] = target: 3',5'-cyclic-AMP phosphodiesterase 4B (Homo sapiens, UniProt Q07343); assay: Inhibition of human recombinant PDE4B2 expressed in baculovirus expression system using cAMP as substrate incubated for 2 hrs by HTRF assay
# [2] = target: Muscarinic acetylcholine receptor M3 (Homo sapiens, UniProt P20309); assay: Displacement of [3H]N-methylscopolamine chloride from human muscarinic M3 receptor incubated for 2 hrs by radioligand binding assay
# Muscarinic acetylcholine receptor M3, sequence (P20309 whole entry): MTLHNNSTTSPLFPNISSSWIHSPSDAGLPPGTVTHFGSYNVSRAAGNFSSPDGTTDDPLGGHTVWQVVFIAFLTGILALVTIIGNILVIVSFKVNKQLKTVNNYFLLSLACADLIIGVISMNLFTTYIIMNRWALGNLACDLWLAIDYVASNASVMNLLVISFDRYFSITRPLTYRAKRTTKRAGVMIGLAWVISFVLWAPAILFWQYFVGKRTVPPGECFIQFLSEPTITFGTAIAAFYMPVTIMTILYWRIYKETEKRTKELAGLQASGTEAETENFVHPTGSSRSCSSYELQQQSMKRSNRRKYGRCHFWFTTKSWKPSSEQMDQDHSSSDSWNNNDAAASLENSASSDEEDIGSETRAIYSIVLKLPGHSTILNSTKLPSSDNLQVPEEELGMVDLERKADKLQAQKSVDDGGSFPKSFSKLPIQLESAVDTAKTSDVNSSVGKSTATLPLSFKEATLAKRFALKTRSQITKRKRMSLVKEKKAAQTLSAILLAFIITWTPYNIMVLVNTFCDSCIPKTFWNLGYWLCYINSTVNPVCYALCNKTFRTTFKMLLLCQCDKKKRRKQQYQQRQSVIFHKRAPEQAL
# [3] = Antiinflammatory activity against LPS-stimulated human PBMC cells assessed reduction in TNFalpha level incubated for 18 hrs by ELISA analysis; format: functional, cell-based; settings: for IC50: Homo sapiens, PBMC, 18 h; for pIC50: pbmc
# Rattus norvegicus [4] = assay: Anti-inflammatory activity against OVA-sensitized Brown-Norway rat airway inflammation model assessed as inhibition of OVA-induced eosinophil influx administered IT(Intratracheal) 2 hrs prior to OVA challenge; format: functional
# Rattus norvegicus [5] = assay: Anti-bronchospastic activity in carbachol-induced bronchospasm Sprague-Dawley rat model assessed as inhibition of carbachol-induced bronchoconstriction at 10 nmol/kg, IT(Intratracheal) administered 1 hr prior to carbachol challenge; format: functional; set-up: scale not given: the % may be the effect or the level left
# [6] = Ratio of ED50 for Anti-inflammatory activity against OVA-sensitized Brown-Norway rat airway inflammation model to ED50 for Anti-bronchospastic activity in carbachol-induced bronchospasm Sprague-Dawley rat model; format: functional
# Trachea = assay: Bronchoconstriction activity in Sprague-Dawley rat trachea assessed as inhibition of carbachol-induced tracheal contraction; format: functional, tissue-based; settings: for IC50: Rattus norvegicus, Sprague-Dawley, Trachea
# Rattus norvegicus [7] = assay: Anti-bronchospastic activity in carbachol-induced bronchospasm Sprague-Dawley rat model assessed as inhibition of carbachol-induced bronchoconstriction administered IT(Intratracheal) for 1 hr prior to carbachol challenge; format: functional
# Rattus norvegicus [8] = assay: Anti-bronchospastic activity in carbachol-induced bronchospasm Sprague-Dawley rat model assessed as inhibition of carbachol-induced bronchoconstriction at 10 nmol/kg, IT(Intratracheal) administered 16 hr prior to carbachol challenge; format: functional; set-up: scale not given: the % may be the effect or the level left
# [9] = Metabolic stability in human lung S9 fraction assessed as half life at 1 uM and measured upto 60 mins in presence of NADPH by LC-MS/MS analysis; format: ADME, subcellular; settings: for half-life at 1 µM: lung S9 fraction; for t1/2: s9, 1 h, 1 µM, 1 h
# [10] = Metabolic stability in rat lung S9 fraction assessed as half life at 1 uM and measured upto 60 mins in presence of NADPH by LC-MS/MS analysis; format: ADME, subcellular; settings: for t1/2: s9, 1 h, 1 µM, 1 h
# [11] = Metabolic stability in rat liver microsomes assessed as intrinsic clerance at 1 uM and measured upto 60 mins by HPLC-MS/MS analysis; format: ADME, Microsome; settings: microsomes, 1 h, 1 µM
# [12] = Metabolic stability in human liver microsomes assessed as intrinsic clerance at 1 uM and measured upto 60 mins by HPLC-MS/MS analysis; format: ADME, Microsome; settings: for microsomal CLint at 1 µM: liver microsomes, read-out: CLH; for CLH: microsomes, 1 h, 1 µM
# [13] = Metabolic stability in human plasma assessed as half life at 5 uM and measured upto 180 mins by HPLC-MS/MS analysis; format: ADME, cell-free
# [14] = Metabolic stability in rat plasma assessed as half life at 5 uM and measured upto 180 mins by HPLC-MS/MS analysis; format: ADME, cell-free; settings: for t1/2: 3 h, 5 µM
# Rattus norvegicus [15] = assay: Anti-bronchospastic activity in carbachol-induced bronchospasm Sprague-Dawley rat model assessed as inhibition of carbachol-induced bronchoconstriction at 30 nmol/kg, IT(Intratracheal) administered 1 hr prior to carbachol challenge; format: functional; set-up: scale not given: the % may be the effect or the level left
# Rattus norvegicus [16] = assay: Anti-bronchospastic activity in carbachol-induced bronchospasm Sprague-Dawley rat model assessed as inhibition of carbachol-induced bronchoconstriction at 30 nmol/kg, IT(Intratracheal) administered 16 hr prior to carbachol challenge; format: functional; set-up: scale not given: the % may be the effect or the level left
# Rattus norvegicus [17] = assay: Anti-inflammatory activity against OVA-sensitized Brown-Norway rat airway inflammation model assessed as inhibition of OVA-induced eosinophil influx at 1000 nmol/kg,IT(Intratracheal) pretreated 24 hrs prior to OVA challenge and measured after 48 hrs by automated cell counter analysis; format: functional; set-up: scale not given: the % may be the effect or the level left; settings: time 72 hrs
# Rattus norvegicus [18] = assay: Anti-inflammatory activity against OVA-sensitized Brown-Norway rat airway inflammation model assessed as inhibition of OVA-induced eosinophil influx at 100 nmol/kg,IT(Intratracheal) pretreated 2 hrs prior to OVA challenge by automated cell counter analysis; format: functional; set-up: scale not given: the % may be the effect or the level left
# [19] = Rattus norvegicus, Sprague-Dawley, read-out: ED50
# 3',5'-cyclic-AMP phosphodiesterase 4B, sequence (Q07343 whole entry): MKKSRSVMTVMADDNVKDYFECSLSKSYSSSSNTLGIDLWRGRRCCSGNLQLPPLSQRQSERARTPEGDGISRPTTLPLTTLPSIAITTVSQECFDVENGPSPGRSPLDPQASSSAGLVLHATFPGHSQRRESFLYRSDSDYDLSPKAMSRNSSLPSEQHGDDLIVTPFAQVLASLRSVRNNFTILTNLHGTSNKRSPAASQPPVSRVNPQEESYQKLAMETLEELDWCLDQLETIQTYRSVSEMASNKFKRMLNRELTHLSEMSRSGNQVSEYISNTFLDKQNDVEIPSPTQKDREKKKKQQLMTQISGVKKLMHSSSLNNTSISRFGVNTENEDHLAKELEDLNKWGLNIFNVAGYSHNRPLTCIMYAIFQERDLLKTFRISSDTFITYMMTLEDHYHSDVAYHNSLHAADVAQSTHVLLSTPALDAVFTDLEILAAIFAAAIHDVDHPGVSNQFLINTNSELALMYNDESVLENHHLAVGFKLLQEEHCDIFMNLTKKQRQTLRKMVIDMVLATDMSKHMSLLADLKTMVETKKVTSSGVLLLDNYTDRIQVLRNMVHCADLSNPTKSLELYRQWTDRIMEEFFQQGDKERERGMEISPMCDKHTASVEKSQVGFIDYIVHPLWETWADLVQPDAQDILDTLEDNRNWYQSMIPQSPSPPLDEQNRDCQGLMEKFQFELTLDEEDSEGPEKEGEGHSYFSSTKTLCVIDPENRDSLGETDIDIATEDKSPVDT
smiles,measurement,setting,value
CS(=O)(=O)N1CCC[C@H]1C(=O)O[C@@H](Cc1c(Cl)c[n+]([O-])cc1Cl)c1ccc(OC(F)F)c(OCC2CC2)c1,IC50,[1],0.501 nM
CN(C)C(=O)c1cccc(S(=O)(=O)N2CCC[C@H]2C(=O)O[C@@H](Cc2c(Cl)c[n+]([O-])cc2Cl)c2ccc(OC(F)F)c(OCC3CC3)c2)c1,IC50,[1],0.0398 nM
COc1cc(C(=O)O[C@@H](Cc2c(Cl)c[n+]([O-])cc2Cl)c2ccc(OC)c(OC)c2)ccc1CNC(C(=O)O[C@H]1CN2CCC1CC2)c1ccccc1 (stereo partly specified),Ki,[2],0.631 nM
same,IC50,[1],5.01 nM
COc1ccc([C@H](Cc2c(Cl)c[n+]([O-])cc2Cl)OC(=O)c2ccc(CNC(C(=O)O[C@H]3CN4CCC3CC4)c3ccccc3)cc2)cc1OC (stereo partly specified),Ki,[2],0.251 nM
same,IC50,[1],2.51 nM
CCOc1cc([C@H](Cc2c(Cl)c[n+]([O-])cc2Cl)OC(=O)c2ccc(CN[C@](CO)(C(=O)O[C@H]3CN4CCC3CC4)c3ccccc3)s2)ccc1OC,IC50,[3],0.398 nM
same,ED50,Rattus norvegicus [4],0.024 µmol/kg
same,Activity,Rattus norvegicus [5],89%
same,Ratio ED50,[6],7.7
same,IC50,Trachea,3.98 nM
same,ED50,Rattus norvegicus [7]; [19],0.0031 µmol/kg
same,Activity,Rattus norvegicus [8],82%
same,Ki,[2],0.251 nM
same,IC50,[1],0.631 nM
CCOc1cc([C@H](Cc2c(Cl)cncc2Cl)OC(=O)c2ccc(CN[C@@](CO)(C(=O)O[C@H]3CN4CCC3CC4)c3ccccc3)s2)ccc1OC,Ki,[2],3.16 nM
same,IC50,[1],7.94 nM
CCOc1cc([C@@H](Cc2c(Cl)c[n+]([O-])cc2Cl)OC(=O)c2ccc(CN[C@@](CO)(C(=O)O[C@H]3CN4CCC3CC4)c3ccccc3)s2)ccc1OC,Ki,[2],25.1 nM
same,IC50,[1],6.31 nM
CCOc1cc(C(=O)O[C@@H](Cc2c(Cl)c[n+]([O-])cc2Cl)c2ccc(OC)c(OC)c2)ccc1CNC(C(=O)O[C@H]1CN2CCC1CC2)c1ccccc1 (stereo partly specified),Ki,[2],1 nM
same,IC50,[1],7.94 nM
COc1ccc([C@H](Cc2c(Cl)c[n+]([O-])cc2Cl)OC(=O)c2ccc(CNC(C(=O)O[C@H]3CN4CCC3CC4)c3ccccc3)c(OCC3CC3)c2)cc1OC (stereo partly specified),Ki,[2],2.51 nM
same,IC50,[1],1 nM
COc1ccc([C@H](Cc2c(Cl)c[n+]([O-])cc2Cl)OC(=O)c2ccc(CNC(C)(C(=O)O[C@H]3CN4CCC3CC4)c3ccccc3)s2)cc1OC (stereo in doubt; 1f),half-life at 1 µM,[9],1.83 h
same,IC50,[3],15.8 nM
same,t1/2,[10],4.67 h
same,CLH,[11],481 µL/min/mg
same,IC50,Trachea,2.51 nM
same,microsomal CLint at 1 µM,[12],470 µL/min/mg
same,half-life at 5 µM,[13],2.9 h
same,half-life at 5 µM,[14],1.43 h
same,Ki,[2],0.2 nM
same,IC50,[1],3.98 nM
COc1ccc([C@H](Cc2c(Cl)c[n+]([O-])cc2Cl)OC(=O)c2ccc(CNC(C)(C(=O)O[C@H]3CN4CCC3CC4)c3ccccc3)s2)cc1OC (stereo in doubt; 1s),t1/2,[9],2.08 h
same,pIC50,[3],7.9
same,t1/2,[10],1.82 h
same,CLH,[11],48 µL/min/mg
same,pIC50,Trachea,8.5
same,CLH,[12],481 µL/min/mg
same,t1/2,"[13]; 3 h, 5 µM",3.18 h
same,t1/2,[14],0.983 h
same,Ki,[2],0.158 nM
same,IC50,[1],1.26 nM
CCC(NCc1ccc(C(=O)O[C@@H](Cc2c(Cl)c[n+]([O-])cc2Cl)c2ccc(OC)c(OC)c2)s1)(C(=O)O[C@H]1CN2CCC1CC2)c1ccccc1 (stereo in doubt; 2f),IC50,[3],2.51 nM
same,IC50,Trachea,25.1 nM
same,Ki,[2],0.316 nM
same,IC50,[1],2.51 nM
CCC(NCc1ccc(C(=O)O[C@@H](Cc2c(Cl)c[n+]([O-])cc2Cl)c2ccc(OC)c(OC)c2)s1)(C(=O)O[C@H]1CN2CCC1CC2)c1ccccc1 (stereo in doubt; 2s),Ki,[2],3.98 nM
same,IC50,[1],3.16 nM
COc1ccc([C@H](Cc2c(Cl)c[n+]([O-])cc2Cl)OC(=O)c2ccc(CNC(CO)(C(=O)O[C@H]3CN4CCC3CC4)c3ccccc3)s2)cc1OC (stereo in doubt; 3f),half-life at 1 µM,[9],1.32 h
same,IC50,[3],0.501 nM
same,Activity,Rattus norvegicus [15],88%
same,half-life at 1 µM,[10]; lung S9 fraction,1.37 h
same,CLH,[11],32 µL/min/mg
same,Activity,Rattus norvegicus [16],28%
same,pIC50,Trachea,7.4
same,ED50,Rattus norvegicus [7],0.0029 µmol/kg
same,microsomal CLint at 1 µM,[12],331 µL/min/mg
same,half-life at 5 µM,[13],> 4 h
same,half-life at 5 µM,[14],2.1 h
same,Ki,[2],0.631 nM
same,IC50,[1],0.631 nM
COc1ccc([C@H](Cc2c(Cl)c[n+]([O-])cc2Cl)OC(=O)c2ccc(CNC(CO)(C(=O)O[C@H]3CN4CCC3CC4)c3ccccc3)s2)cc1OC (stereo in doubt; 3s),t1/2,[9],1.3 h
same,pIC50,[3],9.2
same,ED50,Rattus norvegicus [4],0.016 µmol/kg
same,t1/2,[10],1.38 h
same,CLH,[11],189 µL/min/mg
same,Activity,Rattus norvegicus [5],81%
same,Ratio ED50,[6],20
same,pIC50,Trachea,8.4
same,ED50,Rattus norvegicus [7],0.0008 µmol/kg
same,CLH,[12],196 µL/min/mg
same,Activity,Rattus norvegicus [8],82%
same,t1/2,[14],1.95 h
same,Ki,[2],0.2 nM
same,IC50,[1],0.501 nM
COCC(NCc1ccc(C(=O)O[C@@H](Cc2c(Cl)c[n+]([O-])cc2Cl)c2ccc(OC)c(OC)c2)s1)(C(=O)O[C@H]1CN2CCC1CC2)c1ccccc1 (stereo in doubt; 4f),Ki,[2],3.16 nM
same,IC50,[1],1 nM
COCC(NCc1ccc(C(=O)O[C@@H](Cc2c(Cl)c[n+]([O-])cc2Cl)c2ccc(OC)c(OC)c2)s1)(C(=O)O[C@H]1CN2CCC1CC2)c1ccccc1 (stereo in doubt; 4s),Ki,[2],5.01 nM
same,IC50,[1],1.58 nM
COc1ccc([C@H](Cc2c(Cl)c[n+]([O-])cc2Cl)OC(=O)c2ccc(CNC(CO)(C(=O)O[C@H]3CN4CCC3CC4)c3ccccc3)c(OCC3CC3)c2)cc1OC (stereo in doubt; 9f),Ki,[2],31.6 nM
same,IC50,[1],0.501 nM
COc1ccc([C@H](Cc2c(Cl)c[n+]([O-])cc2Cl)OC(=O)c2ccc(CNC(CO)(C(=O)O[C@H]3CN4CCC3CC4)c3ccccc3)c(OCC3CC3)c2)cc1OC (stereo in doubt; 9s),Ki,[2],> 50.1 nM
same,IC50,[1],0.794 nM
COc1ccc([C@H](Cc2c(Cl)c[n+]([O-])cc2Cl)OC(=O)c2ccc(CNC(CO)(C(=O)O[C@H]3CN4CCC3CC4)c3ccccc3)s2)cc1OCC1CC1 (stereo in doubt; 11f),IC50,[3],1.58 nM
same,Activity,Rattus norvegicus [15],80%
same,pIC50,Trachea,7
same,ED50,Rattus norvegicus [7]; [19],0.0079 µmol/kg
same,Ki,[2],0.398 nM
same,IC50,[1],0.794 nM
COc1ccc([C@H](Cc2c(Cl)c[n+]([O-])cc2Cl)OC(=O)c2ccc(CNC(CO)(C(=O)O[C@H]3CN4CCC3CC4)c3ccccc3)s2)cc1OCC1CC1 (stereo in doubt; 11s),pIC50,[3],8.5
same,pIC50,Trachea,7.8
same,Ki,[2],0.251 nM
same,IC50,[1],1.26 nM
C[C@@H]1C[C@H]2[C@@H]3C[C@H](F)C4=CC(=O)C=C[C@]4(C)[C@@]3(F)[C@@H](O)C[C@]2(C)[C@@]1(OC(=O)c1ccco1)C(=O)SCF [FLUTICASONE FUROATE],Activity,Rattus norvegicus [17],>100%
same,Activity,Rattus norvegicus [18],>100%
